Data reported in PMC13303085, “Succinate dehydrogenase loss suppresses pyrimidine biosynthesis via succinate-mediated inhibition of aspartate transcarbamylase” (Nature metabolism, 2026).
Each block holds one molecule with its values, some of them ahead of it.

Assays:
[1] = molecular target: T1, aspartate transcarbamylase (ATCase) domain of CAD (Homo sapiens, UniProt P27708); experiment: colorimetric carbamoyl-aspartate formation assay with purified MBP-ATCase, CP titration at […] aspartate; type: biochemical; set-up: residues 1,915–2,225 of human CAD, N-terminal 6×His-tagged MBP fusion (MBP-ATCase)
T1 sequence (P27708 1915-2225): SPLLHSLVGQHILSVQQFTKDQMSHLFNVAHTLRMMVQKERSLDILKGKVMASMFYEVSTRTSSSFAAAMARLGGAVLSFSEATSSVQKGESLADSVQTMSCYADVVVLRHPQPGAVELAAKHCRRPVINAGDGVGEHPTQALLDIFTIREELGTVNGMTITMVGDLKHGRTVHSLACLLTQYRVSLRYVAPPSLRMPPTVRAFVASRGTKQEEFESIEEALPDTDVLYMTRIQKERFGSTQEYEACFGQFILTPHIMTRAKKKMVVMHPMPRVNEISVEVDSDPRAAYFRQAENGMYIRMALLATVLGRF

[2] = molecular target: T1, aspartate transcarbamylase (ATCase) domain of CAD; experiment: initial-rate kinetics of purified MBP-ATCase, aspartate titration in excess CP; type: biochemical; set-up: residues 1,915–2,225 of human CAD, N-terminal 6×His-tagged MBP fusion (MBP-ATCase)
[3] = molecular target: T1, aspartate transcarbamylase (ATCase) domain of CAD; experiment: initial-rate kinetics of purified MBP-ATCase, CP titration in excess aspartate (Michaelis-Menten); type: biochemical; set-up: residues 1,915–2,225 of human CAD, N-terminal 6×His-tagged MBP fusion (MBP-ATCase)
From the text: initial-rate kinetics of purified MBP-ATCase, CP titration in excess aspartate (Michaelis-Menten) on aspartate transcarbamylase (ATCase) domain of CAD | relative initial enzymatic rates of MBP-ATCase in excess aspartate and a titration of CP.

[4] = molecular target: T1, aspartate transcarbamylase (ATCase) domain of CAD; experiment: biochemical
[5] = molecular target: the molecule itself; experiment: SEC; affinity-purified MBP-ATCase on Superdex 200 16/600 in 20 mM Tris-HCl pH 7.2, 100 mM NaCl, 2% glycerol, 0.2 mM TCEP; trimer

Molecule: O=C(O)C[C@H](NC(=O)CP(=O)(O)O)C(=O)O [PALA]
- colorimetric carbamoyl-aspartate formation assay with purified MBP-ATCase, CP ti [1]: initial rates were dose-dependently decreased with nanomolar doses of the classical ATCase inhibitor, PALA (N-phosphonacetyl-L-aspartate)

Molecule: N[C@@H](CC(=O)O)C(=O)O [aspartate]
- initial-rate kinetics of purified MBP-ATCase, aspartate titration in excess CP [2]: we measured initial enzymatic rates of MBP-ATCase in excess CP, a titration of aspartate, and three concentrations of succinate

Molecule: NC(=O)OP(=O)(O)O [carbamoyl phosphate]
- initial-rate kinetics of purified MBP-ATCase, CP titration in excess aspartate [3]: relative initial enzymatic rates of MBP-ATCase in excess aspartate and a titration of CP. This showed saturation kinetics

- IC50 [4]: 1.35 mM
Molecule: O=C(O)CCC(=O)O [succinate]

B1: ATCase domain of human CAD fused N-terminally to a 6×His-tagged maltose binding protein (MBP-ATCase) (domain or fragment, UniProt P27708 1915-2225, looked up)
chain: T1 sequence (P27708 1915-2225)
notes: Order of the construct: 6×His, SSG linker, MBP, two SSG linkers, TEV protease site, GS linker, CAD 1915-2225; in pET-28a(+); also called 6×His-tagged MBP-ATCase; human ATCase; source: E. coli BL21, autoinduction medium, purified (HisPur cobalt resin, SEC on Superdex 200); not shown: His6, N-terminal, kept; MBP, N-terminal, kept
- stoichiometry N [5]: 3
